Like-named read-outs stand apart in the source and are kept apart here.
What was measured:
[1] = test system: TRE3G-GFP reporter gene; assay: TRE3G-GFP reporter gene activation in HCT116, dCas9 + MS2-FKBP*x2 (F36V) system, flow cytometry; assay type: cell-based, human; set-up: fold change, GFP: reference not given here; conditions: for fold change, GFP: FIG. 5C, NT gRNA, 48 hrs
[2] = test system: TRE3G-GFP reporter gene; conditions: WT FKBP (MS2-FKBPx2), 48 hrs
Protocol: HCT116 cells were transfected with TRE3G-GFP, dCas9, MS2-FKPB*x2, and TRE3G gRNA or NT gRNA. After 48 hrs of 10 nM SLF*-CEMa treatment, flow cytometry was performed and mean fluorescent value was collected. […] TRE3G-GFP, dCas9, MS2-FKBP*2, TRE3G gRNA or NT gRNA were transfected into HCT116 cells. The media was changed to media with 5 nM CEM207 together with 0 nM, 50 nM, 500 nM or 5000 nM of AP1867, respectively. After 48 hrs chemical exposure, flow cytometry was performed and the mean fluorescent value was measured in each group of cells. […] FIGS. 5D and 5E are dose curves of CEMa molecules activating the GFP reporter gene in HCT116 cells using WT FKBP and dCas9 as DNA binding module. HCT116 cells were transfected with dCas9, MS2-FKBPx2, TRE3G-GFP constructs, along with TRE3G gRNA or NT gRNA. Cells were treated with different concentrations of CEMa molecules for 48 hrs before flow cytometry was conducted. […] Error bars represent the standard deviation.
To better understand the activity of SLF*-CEMa in the WT FKBP-based GFP reporter assay, a similar dose-response assay was conducted in HCT116 cells transfected with dCas9 and MS2-FKBPx2 (FIGS. 1D and 1E).
Flow cytometry. All flow cytometry experiments were performed with Attune Nxt as previously described. […] Significance was determined by Student's t-test.

[3] = test system: CXCR4; assay: CXCR4 mRNA activation in HCT116 stably expressing dCas9 and MS2-FKBP*x2, qRT-PCR; assay type: cell-based, human
Summary of the method: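 HCT116 cells stably expressing dCas9 and MS2-FKBP*x2 with CXCR4 gRNA were treated with CEMs (screen at 5 nM; 1–50 nM range). CXCR4 mRNA measured by one-step qRT-PCR after 48 h, or at 12–96 h in time course. Reversibility tested by washout after 24 h, optionally with 20 μM AP1867.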

[4] = test system: CXCR4; assay: CXCR4 mRNA activation in HCT116 stably expressing dCas9 and MS2-FKBPx2 (WT-FKBP), qRT-PCR; assay type: cell-based, human; conditions: FIG. 6, WT FKBP system, 48 hrs

COc1ccc2c(c1)C(c1ccc(Cl)cc1)=N[C@@H](CC(=O)NCc1cn(CCOCCOCCOCCNC(=O)CCSCCC[C@@H]3/C=C(\C)C[C@H](C)C[C@H](OC)[C@H]4O[C@@](O)(C(=O)C(=O)N5CCCC[C@H]5C(=O)O[C@H](/C(C)=C/[C@@H]5CC[C@@H](O)[C@H](OC)C5)[C@H](C)[C@@H](O)CC3=O)[C@H](C)C[C@@H]4OC)nn1)c1nnc(C)n1-2 [CEM87, reference compound]
concentration at which significant GFP activation was first achieved ([1]; FIG. 1E, FKBP* system, TRE3G gRNA, 48 hours): 50 nM
fold change, GFP (Treated vs Non-Treated) ([1]; FIG. 1E, TRE3G gRNA, 0.25 nM, 48 hours): 1.1 fold
fold change, GFP (Treated vs Non-Treated) ([1]; FIG. 1E, TRE3G gRNA, 0.5 nM, 48 hours): 1.1 fold
fold change, GFP (Treated vs Non-Treated) ([1]; FIG. 1E, TRE3G gRNA, 0.75 nM, 48 hours): 1.1 fold
fold change, GFP (Treated vs Non-Treated) ([1]; FIG. 1E, TRE3G gRNA, 1 nM, 48 hours): 1.1 fold
fold change, GFP (Treated vs Non-Treated) ([1]; FIG. 1E, TRE3G gRNA, 2.5 nM, 48 hours): 1.2 fold
fold change, GFP (Treated vs Non-Treated) ([1]; FIG. 1E, TRE3G gRNA, 5 nM, 48 hours): 1.1 fold
fold change, GFP (Treated vs Non-Treated) ([1]; FIG. 1E, TRE3G gRNA, 7.5 nM, 48 hours): 1.1 fold
fold change, GFP (Treated vs Non-Treated) ([1]; FIG. 1E, TRE3G gRNA, 10 nM, 48 hours): 1.2 fold
fold change, GFP (Treated vs Non-Treated) ([1]; FIG. 1E, TRE3G gRNA, 25 nM, 48 hours): 1.6 fold
fold change, GFP (Treated vs Non-Treated) ([1]; FIG. 1E, TRE3G gRNA, 50 nM, 48 hours): 5.2 fold
fold change, GFP (Treated vs Non-Treated) ([1]; FIG. 1E, TRE3G gRNA, 75 nM, 48 hours): 7.8 fold
fold change, GFP (Treated vs Non-Treated) ([1]; FIG. 1E, TRE3G gRNA, 100 nM, 48 hours): 9.7 fold
fold change, GFP ([1]; 0.25 nM): 1.1 fold
fold change, GFP ([1]; 0.5 nM): 1.1 fold
fold change, GFP ([1]; 0.75 nM): 1.0 fold
fold change, GFP ([1]; 1 nM): 1.0 fold
fold change, GFP ([1]; 2.5 nM): 1.1 fold
fold change, GFP ([1]; 5 nM): 1.0 fold
fold change, GFP ([1]; 7.5 nM): 1.0 fold
fold change, GFP ([1]; 10 nM): 1.0 fold
fold change, GFP ([1]; 25 nM): 1.0 fold
fold change, GFP ([1]; 50 nM): 1.0 fold
fold change, GFP ([1]; 75 nM): 1.0 fold
fold change, GFP ([1]; 100 nM): 1.0 fold
fold change, GFP (Treated vs Non-Treated) ([2]; FIG. 5D, 10 nM): 22.5 fold
fold change, GFP (Treated vs Non-Treated) ([2]; FIG. 5D, 25 nM): 23.1 fold
fold change, GFP (Treated vs Non-Treated) ([2]; FIG. 5D, 50 nM): 22.1 fold
fold change, GFP (Treated vs Non-Treated) ([2]; FIG. 5D, 100 nM): 22.0 fold
fold change, GFP (Treated vs Non-Treated) ([2]; FIG. 5D, 200 nM): 18.7 fold
fold change, GFP (Treated vs Non-Treated) ([2]; FIG. 5D, 400 nM): 18.3 fold
fold change, GFP (Treated vs Non-Treated) ([2]; FIG. 5E, 10 nM): 1.0 fold
fold change, GFP (Treated vs Non-Treated) ([2]; FIG. 5E, 25 nM): 1.1 fold
fold change, GFP (Treated vs Non-Treated) ([2]; FIG. 5E, 50 nM): 1.1 fold
fold change, GFP (Treated vs Non-Treated) ([2]; FIG. 5E, 100 nM): 1.2 fold
fold change, GFP (Treated vs Non-Treated) ([2]; FIG. 5E, 200 nM): 1.1 fold
fold change, GFP (Treated vs Non-Treated) ([2]; FIG. 5E, 400 nM): 1.2 fold
fold change, CXCR4 mRNA (Treated vs Non-Treated) ([3]; FIG. 2C, 5 nM, 48 hrs): 1.5 fold
fold change, CXCR4 mRNA (CEM Treated vs Non-Treated) ([3]; FIG. 2D, CXCR4 gRNA, 1 nM, 48 hrs): 1.16 fold
fold change, CXCR4 mRNA (CEM Treated vs Non-Treated) ([3]; FIG. 2D, CXCR4 gRNA, 5 nM, 48 hrs): 1.03 fold
fold change, CXCR4 mRNA (CEM Treated vs Non-Treated) ([3]; FIG. 2D, CXCR4 gRNA, 25 nM, 48 hrs): 1.19 fold
fold change, CXCR4 mRNA (CEM Treated vs Non-Treated) ([3]; FIG. 2D, CXCR4 gRNA, 50 nM, 48 hrs): 1.53 fold
fold change, CXCR4 mRNA (CEM Treated vs Non-Treated) ([3]; FIG. 2D, NT gRNA, 1 nM, 48 hrs): 0.85 fold
fold change, CXCR4 mRNA (CEM Treated vs Non-Treated) ([3]; FIG. 2D, NT gRNA, 5 nM, 48 hrs): 0.81 fold
fold change, CXCR4 mRNA (CEM Treated vs Non-Treated) ([3]; FIG. 2D, NT gRNA, 25 nM, 48 hrs): 0.91 fold
fold change, CXCR4 mRNA (CEM Treated vs Non-Treated) ([3]; FIG. 2D, NT gRNA, 50 nM, 48 hrs): 1.18 fold
activation of CXCR4 mRNA expression ([3]; FIG. 2D, all concentrations tested (1-50 nM), 48 hours): no significant activation
fold change, CXCR4 mRNA (CXCR4 gRNA vs NT gRNA) ([4]; 25 nM): 21.5 fold
fold change, CXCR4 mRNA (CXCR4 gRNA vs NT gRNA) ([4]; 50 nM): 16.5 fold
fold change, CXCR4 mRNA (CXCR4 gRNA vs NT gRNA) ([4]; 200 nM): 19.0 fold

From patent US20250177566A1, “USE OF CHEMICAL EPIGENETIC MODIFIERS TO MODULATE GENE EXPRESSION” (The University of North Carolina at Chapel Hill, priority 2022, published 2025)
